Measurements as given in patent publication US5434256A, “Diamine platinum complexes as antitumor agents” (priority 1994, dated 1995).
“Also recorded” adds a separate entry of the source.

Assays:
[1] = Renal and hematological toxicity, single i.p. dose (Table 8); conditions: for BUN d.5: blood urea nitrogen, saline control 20.9; for BUN d.5 / Survivors on d.14 / Body Wt. on d.5: single i.p. dose (mg/kg): 1,4-DACH-Pt^II CBDCA 300, 1,4-DACH-Pt^IV Cl4 8.0, Tetraplatin 8.0, Cis-platin 12.0, Carboplatin 150; for Body Wt. on d.5: mean, S.D. less than 20%; for myelotoxicity / myelosuppression (in words): leucopenia
[2] = tested on: L1210/0 cells; assay: Modified MTT cytotoxicity assay, murine leukemia L1210/0 (Example 2, Table 3); assay type: cell-based; conditions: L1210/0; MTT, continuous exposure 5 days
[3] = tested on: A2780 cells; assay: Modified MTT cytotoxicity assay, human ovarian A2780 (Example 2, Table 3); assay type: cell-based; conditions: continuous exposure (5 days in table footnote; 7 days in text)
[4] = tested on: M5076 Tumor Model; assay: In vivo antitumor activity against M5076 tumor model (Example 3, Table 4); set-up: species or system BDF1 mice; TGD (Tumor Growth Delay): unit not given beside the values; conditions: M5076 s.c., BDF1 mice, i.p. days 7, 14, 21, 28; for TGD (Tumor Growth Delay): at optimal dose/MTD
Experimental: (§1) Each of the platinum complexes was evaluated in vivo against L1210/0, L1210/DDP, L1210/DACH and M5076 cells at several dose levels. […] The data at optimal doses are reproduced in Tables 4-7 along with data for the cyclobutanedicarboxylato, aquasulfato, methylmalonato and tartronato analogs (compounds 1-4 in Table 1).
BDF1 mice inoculated s.c. with 10' M5076 cells on day 0 and drug
administered i.p on days 7, 14, 21, and 28. MTD = Maximum Tolerated Dose
(mg/kg/injection), TGD = Tumor Growth Delay

[5] = tested on: Murine Leukemia L1210/0; assay: In vivo antitumor activity against murine leukemia L1210/0 (Example 3, Table 5); set-up: species or system BDF1 mice; conditions: for MTD (Maximum Tolerated Dose) / % T/C (mean survival time of treated/mean survival time of control) × 100 / long term survivors/no. tested: L1210/0 i.p., BDF1 mice, drug i.p. days 1, 5, 9; for % T/C (mean survival time of treated/mean survival time of control) × 100: at optimal dose/MTD; for long term survivors/no. tested: figures in parenthesis
Experimental: as §1
BDF1 mice inoculated i.p. with 10^5 L1210 Leukemiacells on day 0 and
(§2) drug administered i.p. on days 1, 5, and 9. MTD = Maximum Tolerated Dose
(§3) (mg/kg/injection), % T/C = (mean survival time of treated/mean survival
time of control) × 100. Figures in parenthesis indicate long term

[6] = tested on: Murine Leukemia L1210/DACH; assay: In vivo antitumor activity against murine leukemia L1210/DACH (Example 3, Table 6); set-up: species or system BDF1 mice; conditions: for MTD (Maximum Tolerated Dose) / % T/C (mean survival time of treated/mean survival time of control) × 100 / long term survivors/no. tested: L1210/DACH i.p., BDF1 mice, drug i.p. days 1, 5, 9; for % T/C (mean survival time of treated/mean survival time of control) × 100: at optimal dose/MTD; for long term survivors/no. tested: figures in parenthesis
Experimental: as §1
(§4) BDF1 mice inoculated i.p. with 10^5 L1210 Leukemia cells on day 0 and
as §2, §3
(§5) time of control) × 100. Figures in parenthesis indicated long term

[7] = tested on: Murine Leukemia 1210/DDP; assay: In vivo antitumor activity against murine leukemia L1210/DDP (Example 3, Table 7); set-up: species or system BDF1 mice; conditions: for % T/C (mean survival time of treated/mean survival time of control) × 100: at optimal dose/MTD
Experimental: as §1, §4
drug administed i.p. on days 1, 5, and 9. MTD = Maximum Tolerated Dose
as §3, §5

[8] = tested on: L1210/0 cells; assay: MTT cytotoxicity, L1210/0 (Example 5, Table 10); assay type: cell-based, murine; conditions: 72 hr (3 days) continuous exposure
[9] = tested on: L1210/DDP cells; assay: MTT cytotoxicity, cisplatin-resistant L1210/DDP (Example 5, Table 10); assay type: cell-based, murine; conditions: 72 hr (3 days) continuous exposure
[10] = tested on: L1210/DACH cells; assay: MTT cytotoxicity, tetraplatin-resistant L1210/DACH (Example 5, Table 10); assay type: cell-based, murine; conditions: 72 hr (3 days) continuous exposure
[11] = L1210/DDP i.p., BDF1 mice, drug i.p. days 1, 5, 9

N.N.O=C([O-])C1(C(=O)[O-])CCC1.[Pt+2] [Carboplatin]
BUN d.5 [1]: 15.8 mg %
Survivors on d.14 [1]: 0/5
Body Wt. on d.5 [1]: 79 % on control
myelotoxicity / myelosuppression (in words) ([1]; single i.p. dose): myelosuppressive

NC1CCC(N)CC1.O.O=C([O-])C1(C(=O)[O-])CCC1.[Pt+2] [Compound 1, Cis-1,4-diaminocyclohexane-1,1-cyclobutanedicarboxylato-platinum(II).H2 O]
IC50 [2]: 1600 nM
IC50 [3]: 430 nM
MTD (Maximum Tolerated Dose) [4]: 200 mg/kg/injection
TGD (Tumor Growth Delay) [4]: 42.3
MTD (Maximum Tolerated Dose) [5]: 200 mg/kg/injection
% T/C (mean survival time of treated/mean survival time of control) × 100 [5]: 195%
MTD (Maximum Tolerated Dose) [6]: 200 mg/kg/injection
% T/C (mean survival time of treated/mean survival time of control) × 100 [6]: 180%
long term survivors/no. tested [6]: 1/5
antitumor activity in vivo against L1210/DDP (in words) [7]: inactive
BUN d.5 [1]: 18.0 mg %
Body Wt. on d.5 [1]: 99 % on control

NC1CCC(N)CC1.O.O=S(=O)([O-])[O][Pt+] (stereo not drawn) [Compound 2, Cis-1,4-Diaminocyclohexaneaquasulfatoplatinum(II)]
IC50 [2]: 80 nM
IC50 [3]: 50 nM
MTD (Maximum Tolerated Dose) [4]: 3.1 mg/kg/injection
TGD (Tumor Growth Delay) [4]: 12.1
MTD (Maximum Tolerated Dose) [5]: 1.56 mg/kg/injection
% T/C (mean survival time of treated/mean survival time of control) × 100 [5]: > 571%
long term survivors/no. tested [5]: 3/5
MTD (Maximum Tolerated Dose) [6]: 1.56 mg/kg/injection
% T/C (mean survival time of treated/mean survival time of control) × 100 [6]: 140%
long term survivors/no. tested [6]: 1/5

CC(C(=O)[O-])C(=O)[O-].N[C@H]1CC[C@@H](N)CC1.O.[Pt+2] [Compound 3, Cis-1,4-Diaminocyclohexanemethylmalonatoplatinum(II). H2 O]
IC50 [2]: 280 nM
IC50 [3]: 130 nM
MTD (Maximum Tolerated Dose) [4]: 200 mg/kg/injection
TGD (Tumor Growth Delay) [4]: 23.62
MTD (Maximum Tolerated Dose) [5]: 200 mg/kg/injection
% T/C (mean survival time of treated/mean survival time of control) × 100 [5]: 382%
long term survivors/no. tested [5]: 1/5
MTD (Maximum Tolerated Dose) [6]: 100 mg/kg/injection
% T/C (mean survival time of treated/mean survival time of control) × 100 [6]: 180%
long term survivors/no. tested [6]: 1/5

NC1CCC(N)CC1.O=C1[O][Pt][O]C(=O)C1O [Compound 4, Cis-1,4-diaminocyclohexanetartronatoplatinum(II)]
IC50 [2]: 500 nM
IC50 [3]: 110 nM
MTD (Maximum Tolerated Dose) [4]: 50 mg/kg/injection
TGD (Tumor Growth Delay) [4]: 30.66
MTD (Maximum Tolerated Dose) [5]: 25 mg/kg/injection
% T/C (mean survival time of treated/mean survival time of control) × 100 [5]: 406%
long term survivors/no. tested [5]: 1/5
antitumor activity in vivo against L1210/DACH (in words) ([6]; L1210/DACH): highly active
MTD (Maximum Tolerated Dose) [6]: 50 mg/kg/injection
% T/C (mean survival time of treated/mean survival time of control) × 100 [6]: 343%
long term survivors/no. tested [6]: 4/5
cure rate ([6]; L1210/DACH, Table 6): 80%
MTD (Maximum Tolerated Dose) [7, 11]: 50 mg/kg/injection
% T/C (mean survival time of treated/mean survival time of control) × 100 [7, 11]: 187%

NC1CCC(N)CC1.O=C1[O][Pt][O]C1=O (stereo not drawn) [Compound 5, Cis-1,4-diaminocyclohexaneoxalatoplatinum(II)]
IC50 [2]: 240 nM
IC50 [3]: 60 nM

N[C@H]1CC[C@@H](N)CC1.O=C([O-])CC(=O)[O-].[Pt+2] [Compound 6, Cis-1,4-diaminocyclohexanemalonatoplatinum(II)]
IC50 [2]: 340 nM
IC50 [3]: 80 nM

NC1CCC(N)CC1.[Cl][Pt]([Cl])([Cl])[Cl] (stereo not drawn) [Compound 7, Cis-1,4-Diaminocyclohexanetetrachloroplatinum(IV)]
IC50 [2]: 120 nM
IC50 [3]: 90 nM
MTD (Maximum Tolerated Dose) [4]: 3.1 mg/kg/injection
TGD (Tumor Growth Delay) [4]: 18.74
antitumor activity in vivo against L1210/0 (in words) ([5]; L1210/0): excellent activity; also recorded: comparable or slightly greater activity
MTD (Maximum Tolerated Dose) [5]: 3.1 mg/kg/injection
% T/C (mean survival time of treated/mean survival time of control) × 100 [5]: 335%
long term survivors/no. tested [5]: 2/5
antitumor activity in vivo against L1210/DACH (in words) ([6]; L1210/DACH): good activities; also recorded: good activity
MTD (Maximum Tolerated Dose) [6]: 3.1 mg/kg/injection
% T/C (mean survival time of treated/mean survival time of control) × 100 [6]: 146%
antitumor activity in vivo against L1210/DDP (in words) [7]: good activities; also recorded: comparable or slightly greater activity
MTD (Maximum Tolerated Dose) [7, 11]: 3.1 mg/kg/injection
% T/C (mean survival time of treated/mean survival time of control) × 100 [7, 11]: 170%
long term survivors/no. tested ([7]; L1210/DDP i.p., BDF1 mice, drug i.p. days 1, 5, 9, figures in parenthesis): 1/5
BUN d.5 [1]: 21.3 mg %
Survivors on d.14 [1]: 4/5
Body Wt. on d.5 [1]: 89 % on control
nephrotoxicity (in words) ([1]; single i.p. dose, BUN): did not show any indication of nephrotoxicity
myelotoxicity / myelosuppression (in words) ([1]; single i.p. dose): did not show any indication of nephrotoxicity or myelotoxicity

NC1CCC(N)CC1.[OH][Pt]([OH])([Cl])[Cl] (stereo not drawn) [Compound 8, Cis-1,4-diaminocyclohexanedichlorodihydroxoplatinum(IV)]
IC50 [2]: 880 nM
IC50 [3]: 140 nM

NC1CCC(N)CC1.O=C1[O][Pt]([Cl])([Cl])[O]C(=O)C12CCC2 [Compound 9, Cis-1,4-diaminocyclohexane-1,1-cyclobutanedicarboxylato-dichloroplatinum(IV)]
IC50 [2]: 140 nM
IC50 [3]: 50 nM

NC1CCC(N)CC1.O=C1[O][Pt]([Cl])([Cl])[O]C1=O [Compound 10, Cis-1,4-diaminocyclohexaneoxalatodichloroplatinum(IV)]
IC50 [2]: 200 nM
IC50 [3]: 51 nM

CC(=O)[O][Pt]([Cl])([Cl])[O]C(C)=O.NC1CCC(N)CC1 [Compound 11, Cis-1,4-diamtinocyclohexanedichlorodiacetatoplatinum (IV)]
IC50 [3]: 45 nM

CCC(=O)[O][Pt]([Cl])([Cl])[O]C(=O)CC.N[C@@H]1CCCC[C@H]1N [Compound 16, (R,R-1,2-DACH)PtCl2 trans-(Propionate)2]
IC50 [8]: 110 nM
IC50 [9]: 560 nM
IC50 [10]: 550 nM

CCCC(=O)[O][Pt]([Cl])([Cl])[O]C(=O)CCC.N[C@@H]1CCCC[C@H]1N [Compound 17, (R,R-1,2-diaminocyclohexane)PtCl2 trans(butyrate)2]
IC50 [8]: 40 nM
IC50 [9]: 220 nM
IC50 [10]: 170 nM

CCCCC(=O)[O][Pt]([Cl])([Cl])[O]C(=O)CCCC.N[C@@H]1CCCC[C@H]1N [Compound 18, (R,R-1,2-DACH)PtCl2 trans(pentanoate)2]
IC50 [8]: 40 nM
IC50 [9]: 270 nM
IC50 [10]: 240 nM

CCCCCC(=O)[O][Pt]1([Cl])([Cl])([O]C(=O)CCCCC)[NH]C2CCCCC2[NH]1 [Compound 19, (R,R-1,2-DACH)PtCl2 trans-(hexanoate)2]
IC50 [8]: 40 nM
IC50 [9]: 230 nM
IC50 [10]: 1500 nM

CCCCCCC(=O)[O][Pt]([Cl])([Cl])[O]C(=O)CCCCCC.N[C@@H]1CCCC[C@H]1N [Compound 20, (R,R-1,2-DACH)PtCl2trans(heptanoate)2]
IC50 [8]: 150 nM
IC50 [9]: 700 nM
IC50 [10]: 2300 nM

CCC(=O)[O][Pt]([Cl])([Cl])[O]C(=O)CC.NC1CCC(N)CC1 [Compound 21, (cis-1,4-DACH)PtCl2 trans-(propionate)2]
IC50 [8]: 5.5 nM
IC50 [9]: 500 nM
IC50 [10]: 40 nM

CCCC(=O)[O][Pt]([Cl])([Cl])[O]C(=O)CCC.NC1CCC(N)CC1 [Compound 22, (cis-1,4-DACH)PtCl2 trans-(butyrate)2]
IC50 [8]: 1.2 nM
IC50 [9]: 130 nM
IC50 [10]: 20 nM
